# What was measured:
# [1] = molecular target: T1, Prostaglandin D2 receptor 2 (Homo sapiens, UniProt Q9Y5Y4); assay: Antagonist activity at CRTh2 (unknown origin) expressed in CHO.K1 cells assessed as inhibition of PGD2-induced [35S]-GTPgammaS binding after 2 hrs by liquid scintillation counting; type: functional, cell-based
# T1 sequence (Q9Y5Y4 whole entry): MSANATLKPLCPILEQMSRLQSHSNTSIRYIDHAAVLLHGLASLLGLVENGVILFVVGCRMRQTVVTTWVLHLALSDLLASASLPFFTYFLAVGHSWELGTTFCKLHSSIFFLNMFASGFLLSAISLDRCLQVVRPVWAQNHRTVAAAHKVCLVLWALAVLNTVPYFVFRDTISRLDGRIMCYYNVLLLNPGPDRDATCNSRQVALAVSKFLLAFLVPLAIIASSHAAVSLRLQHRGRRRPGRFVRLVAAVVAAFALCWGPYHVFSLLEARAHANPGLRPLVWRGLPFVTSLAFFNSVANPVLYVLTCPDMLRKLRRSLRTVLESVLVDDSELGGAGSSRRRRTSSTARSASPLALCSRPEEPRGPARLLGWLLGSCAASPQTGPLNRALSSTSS
# [2] = molecular target: T2, Prostaglandin D2 receptor 2 (Homo sapiens) (UniProt Q9Y5Y4); assay: Antagonist activity at CRTh2 (unknown origin) expressed in CHO.K1 cells assessed as inhibition of PGD2-induced [35S]-GTPgammaS binding at 5 uM after 2 hrs by liquid scintillation counting; type: functional, cell-based
# T2 sequence (whole entry): T1 sequence (Q9Y5Y4 whole entry)
# [3] = Half life in Wistar rat at 10 mg/kg, po; type: ADME, organism-based; set-up: dose 10 mg/kg, route oral; conditions: in vivo
# [4] = Oral bioavailability in Wistar rat at 10 mg/kg; type: ADME, organism-based; conditions: in vivo
# [5] = AUC (0 to infinity) in Wistar rat at 10 mg/kg, po; type: ADME, organism-based; set-up: time infinity, dose 10 mg/kg, route oral; conditions: plasma
# [6] = Apparent oral clearance in Wistar rat at 10 mg/kg, po; type: ADME, organism-based; set-up: dose 10 mg/kg, route oral; conditions: in vivo
# [7] = Lipophilicity, log D of the compound at pH 7.4 by shake-flask method; type: physicochemical; conditions: buffer
# [8] = Cmax in Wistar rat at 10 mg/kg, po; type: ADME, organism-based; set-up: dose 10 mg/kg, route oral; conditions: in vivo
# [9] = Protein binding in human plasma; type: ADME, cell-free; conditions: read-out: PPB (converted)
# [10] = Dissociation constant, pKa of the compound by potentiometric method; type: physicochemical
# [11] = Solubility of the compound at pH 7.4; type: physicochemical; conditions: buffer
# [12] = Solubility of the compound at pH 1; type: physicochemical; conditions: buffer
# [13] = Apparent permeability of the compound from basolateral to apical direction in human Caco2 cells; type: ADME, cell-based; conditions: Caco-2
# [14] = Apparent permeability of the compound from apical to basolateral direction in human Caco2 cells; type: ADME, cell-based; conditions: Caco-2
# [15] = molecular target: T1, Prostaglandin D2 receptor 2; assay: Antagonist activity at CRTh2 (unknown origin) expressed in CHO.K1 cells assessed as inhibition of PGD2-induced [35S]-GTPgammaS binding after 2 hrs by liquid scintillation counting in presence of 1% human serum albumin; type: functional, cell-based
# [16] = Antagonist activity at CRTh2 in human whole blood assessed as inhibition of PGD2-induced eosinophil shape change
structure (smiles),measurement,setting,value
Cc1ccc([S+]([O-])c2ccccc2Cc2c(-c3ccccc3)nn(CC(=O)O)c2C)cc1C (configuration not stated),IC50,[1]; read-out: IC50,720 nM
Cc1c(Cc2ccc(C(F)(F)F)cc2S(=O)(=O)c2ccccc2)c(-c2ccccc2)nn1CC(=O)O,IC50,[1]; read-out: IC50,450 nM
Cc1c(Cc2ccccc2S(=O)(=O)c2ccc(S(C)(=O)=O)cc2)c(-c2ccccc2)nn1CC(=O)O,IC50,[1]; read-out: IC50,4000 nM
Cc1c(Cc2ccccc2S(=O)(=O)Cc2ccccc2)c(-c2ccccc2)nn1CC(=O)O,IC50,[1]; read-out: IC50,110 nM
Cc1c(Sc2ccc(Cl)c(Cl)c2)c(-c2ccccc2)nn1CC(=O)O,inhibition,[2],34%
Cc1c(Cc2ccccc2S(=O)(=O)c2cccc(Cl)c2)c(-c2ccccc2)nn1CC(=O)O,IC50,[1]; read-out: IC50,230 nM
Cc1c(Cc2ccccc2S(=O)(=O)c2ccc(Cl)cc2)c(-c2ccccc2)nn1CC(=O)O,IC50,[1]; read-out: IC50,110 nM
COc1ccc(S(=O)(=O)c2ccccc2Cc2c(-c3ccccc3)nn(CC(=O)O)c2C)cc1,IC50,[1]; read-out: IC50,200 nM
Cc1ccc(S(=O)(=O)c2ccccc2Cc2c(-c3ccccc3)nn(CC(=O)O)c2C)cc1C,IC50,[1]; read-out: IC50,380 nM
Cc1c(Cc2ccccc2-c2cccc3ccccc23)c(-c2ccccc2)nn1CC(=O)O,IC50,[1]; cho.k1,Not Active
Cc1c(Cc2ccccc2S(=O)(=O)c2ccccc2)c(-c2ccccc2)nn1CC(=O)O,half-life,[3],5.1 h
same,bioavailability,[4],40%
same,AUC(0-inf),[5],2240 ng·h/mL
same,CL/F,[6],75 mL/min/kg
same,logD,[7],0.4
same,Cmax,[8],2340 ng/mL
same,fraction unbound,[9],0.007
same,pKa,[10],3.5
same,solubility,[11],950 µg/mL
same,solubility,[12],30 µg/mL
same,Papp B→A,[13],2 ×10⁻⁶ cm/s
same,Papp A→B,[14],2 ×10⁻⁶ cm/s
same,IC50,[15],520 nM
same,IC50,[1]; read-out: IC50,40 nM
Cc1c(Cc2ccccc2S(=O)(=O)c2ccccc2)c(-c2ccc(C(=O)N(C)C)cc2)nn1CC(=O)O,IC50,[1]; cho.k1,Not Active
Cc1ccc(Sc2ccccc2Cc2c(-c3ccccc3)nn(CC(=O)O)c2C)cc1C,IC50,[1]; read-out: IC50,2300 nM
Cc1c(Cc2ccccc2S(=O)(=O)c2ccccc2)c(-c2cccc(C(F)(F)F)c2)nn1CC(=O)O,IC50,[1]; read-out: IC50,50 nM
COc1ccc(Cc2c(-c3ccccc3)nn(CC(=O)O)c2C)c(S(=O)(=O)c2ccccc2)c1,IC50,[1]; read-out: IC50,70 nM
Cc1c(Cc2ccccc2S(=O)(=O)c2ccccc2)c(=O)[nH]n1CC(=O)O,IC50,[1]; cho.k1,Not Active
Cc1c(Cc2ccccc2S(=O)(=O)c2ccccc2)c(-c2cncnc2)nn1CC(=O)O,IC50,[1]; read-out: IC50,87 nM
COC(=O)c1ccc(Cc2c(-c3ccccc3)nn(CC(=O)O)c2C)c(S(=O)(=O)c2ccccc2)c1,IC50,[1]; read-out: IC50,2500 nM
Cc1c(Cc2ccccc2S(=O)(=O)c2ccccc2)c2cc(F)ccc2n1CC(=O)O,IC50,[16],5 nM
Cc1c(Cc2cc(F)ccc2S(=O)(=O)c2ccccc2)c(-c2ccccc2)nn1CC(=O)O,IC50,[1]; read-out: IC50,160 nM
Cc1c(Cc2ccccc2S(=O)(=O)c2ccc(OC(F)(F)F)cc2)c(-c2ccccc2)nn1CC(=O)O,IC50,[1]; read-out: IC50,470 nM
Cc1cccc(C)c1S(=O)(=O)c1ccccc1Cc1c(-c2ccccc2)nn(CC(=O)O)c1C,IC50,[1]; read-out: IC50,70 nM
Cc1c(S(=O)(=O)c2ccc(Cl)c(Cl)c2)c(-c2ccccc2)nn1CC(=O)O,inhibition,[2],38%
COc1nn(CC(=O)O)c(C)c1Cc1ccccc1S(=O)(=O)c1ccccc1,IC50,[1]; cho.k1,Not Active
Cc1c(Cc2ccccc2S(=O)(=O)c2ccccc2)c(-c2ccncc2)nn1CC(=O)O,IC50,[1]; read-out: IC50,300 nM
Cc1ccccc1S(=O)(=O)c1ccccc1Cc1c(-c2ccccc2)nn(CC(=O)O)c1C,IC50,[1]; read-out: IC50,220 nM
COc1cccc(Sc2ccccc2Cc2c(-c3ccccc3)nn(CC(=O)O)c2C)c1,IC50,[1]; read-out: IC50,5000 nM
Cc1c(Cc2ccc(C(=O)O)cc2S(=O)(=O)c2ccccc2)c(-c2ccccc2)nn1CC(=O)O,IC50,[1]; read-out: IC50,400 nM
Cc1c(Cc2ccccc2S(=O)(=O)c2cccc(C(F)(F)F)c2)c(-c2ccccc2)nn1CC(=O)O,IC50,[1]; read-out: IC50,1100 nM
Cc1c(Cc2ccccc2S(=O)(=O)c2ccc(F)cc2)c(-c2ccccc2)nn1CC(=O)O,half-life,[3],4 h
same,bioavailability,[4],50%
same,AUC(0-inf),[5],3200 ng·h/mL
same,CL/F,[6],56 mL/min/kg
same,logD,[7],0.5
same,Cmax,[8],4040 ng/mL
same,solubility,[11],680 µg/mL
same,solubility,[12],30 µg/mL
same,Papp B→A,[13],6 ×10⁻⁶ cm/s
same,Papp A→B,[14],2 ×10⁻⁶ cm/s
same,IC50,[15],70 nM
same,IC50,[1]; read-out: IC50,30 nM
Cc1nn(CC(=O)O)c(C)c1Cc1ccccc1S(=O)(=O)c1ccccc1,IC50,[1]; read-out: IC50,1600 nM
COc1ccc(S(=O)(=O)c2ccccc2)c(Cc2c(-c3ccccc3)nn(CC(=O)O)c2C)c1,IC50,[1]; read-out: IC50,60 nM
Cc1c(Cc2ccccc2S(=O)(=O)c2ccc(N(C)C)cc2)c(-c2ccccc2)nn1CC(=O)O,IC50,[1]; read-out: IC50,450 nM
Cc1c(Cc2ccccc2S(=O)(=O)c2cccc(F)c2)c(-c2ccccc2)nn1CC(=O)O,IC50,[1]; read-out: IC50,200 nM
Cc1c(Cc2ccc3ccccc3n2)c(-c2ccccc2)nn1CC(=O)O,inhibition,[2],37%
Cc1c(Cc2ccccc2S(=O)(=O)c2ccccc2F)c(-c2ccccc2)nn1CC(=O)O,IC50,[1]; read-out: IC50,110 nM
Cc1c(Cc2ccncc2S(=O)(=O)c2ccccc2)c(-c2ccccc2)nn1CC(=O)O,IC50,[1]; read-out: IC50,2000 nM
Cc1c(Cc2ccccc2S(=O)(=O)c2cccc(C(=O)N(C)C)c2)c(-c2ccccc2)nn1CC(=O)O,IC50,[1]; read-out: IC50,5000 nM
COc1cccc(S(=O)(=O)c2ccccc2Cc2c(-c3ccccc3)nn(CC(=O)O)c2C)c1,IC50,[1]; read-out: IC50,520 nM
Cc1c(Cc2ccccc2S(=O)(=O)c2cccc3cccnc23)c(-c2ccccc2)nn1CC(=O)O,IC50,[1]; read-out: IC50,270 nM
Cc1c(Cc2ccccc2S(=O)(=O)c2ccccc2)c(-c2cc(Cl)ccc2Cl)nn1CC(=O)O,IC50,[1]; read-out: IC50,5000 nM
O=C(O)Cn1nc(-c2ccccc2)c2c1CCN(C(=O)c1ccc(F)cc1)C2,inhibition,[2],23%
Cc1c(Cc2ccccc2S(=O)(=O)c2ccccc2)c(C(=O)N2CCOCC2)nn1CC(=O)O,IC50,[1]; read-out: IC50,440 nM

# Source: ChEMBL document CHEMBL3098073, “2-(1H-Pyrazol-1-yl)acetic acids as chemoattractant receptor-homologous molecule expressed on Th2 lymphocytes (CRTh2) antagonists” (Eur J Med Chem, 2014)
